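Values below derive from 48-hour exposures of cells grown in 96-well plates, with endpoints linearly interpolated between the two concentrations bracketing the appropriate inhibition level. At the TGI there is no net growth.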
Columns and labels:
Assay in all cases: inhibition of tumour cell growth, NCI panel, 48 h
786-0 renal = test system: 786-0 renal
A498 renal = test system: A498 renal
A549 NSCLC = test system: A549 NSCLC
ACHN renal = test system: ACHN renal
CAKI-1 renal = test system: CAKI-1 renal
CCRF-CEM leukemia = test system: CCRF-CEM leukemia
COLO 205 colon = test system: COLO 205 colon
DU-145 prostate = test system: DU-145 prostate
EKVX NSCLC = test system: EKVX NSCLC
HCC-2998 colon = test system: HCC-2998 colon
HCT-116 colon = test system: HCT-116 colon
HCT-15 colon = test system: HCT-15 colon
HL-60(TB) leukemia = test system: HL-60(TB) leukemia
HOP-62 NSCLC = test system: HOP-62 NSCLC
HS 578T breast = test system: HS 578T breast
HT29 colon = test system: HT29 colon
IGROV1 ovarian = test system: IGROV1 ovarian
K-562 leukemia = test system: K-562 leukemia
KM12 colon = test system: KM12 colon
LOX IMVI melanoma = test system: LOX IMVI melanoma
M14 melanoma = test system: M14 melanoma
MALME-3M melanoma = test system: MALME-3M melanoma
MCF7 breast = test system: MCF7 breast
MDA-MB-231 breast = test system: MDA-MB-231 breast
MDA-MB-435 = test system: MDA-MB-435
MDA-N = test system: MDA-N
MOLT-4 leukemia = test system: MOLT-4 leukemia
NCI-H226 lung = test system: NCI-H226 lung
NCI-H23 lung = test system: NCI-H23 lung
NCI-H460 lung = test system: NCI-H460 lung
NCI-H522 lung = test system: NCI-H522 lung
NCI/ADR-RES ovarian = test system: NCI/ADR-RES ovarian
OVCAR-3 ovarian = test system: OVCAR-3 ovarian
OVCAR-4 ovarian = test system: OVCAR-4 ovarian
OVCAR-5 ovarian = test system: OVCAR-5 ovarian
OVCAR-8 ovarian = test system: OVCAR-8 ovarian
PC-3 prostate = test system: PC-3 prostate
RPMI-8226 leukemia = test system: RPMI-8226 leukemia
RXF 393 renal = test system: RXF 393 renal
SF-268 CNS = test system: SF-268 CNS
SF-295 CNS = test system: SF-295 CNS
SF-539 CNS = test system: SF-539 CNS
SK-MEL-2 melanoma = test system: SK-MEL-2 melanoma
SK-MEL-28 melanoma = test system: SK-MEL-28 melanoma
SK-MEL-5 melanoma = test system: SK-MEL-5 melanoma
SK-OV-3 ovarian = test system: SK-OV-3 ovarian
SN12C renal = test system: SN12C renal
SNB-19 CNS = test system: SNB-19 CNS
SNB-75 CNS = test system: SNB-75 CNS
SW-620 colon = test system: SW-620 colon
T-47D breast = test system: T-47D breast
TK-10 renal = test system: TK-10 renal
U251 CNS = test system: U251 CNS
UACC-62 melanoma = test system: UACC-62 melanoma
UO-31 renal = test system: UO-31 renal
HOP-92 NSCLC = test system: HOP-92 NSCLC
SR leukemia = test system: SR leukemia
UACC-257 melanoma = test system: UACC-257 melanoma
BT-549 breast = test system: BT-549 breast

Measured: TGI

CCC(=O)C1(N2CCOCC2)CCN(CCCC(=O)c2ccc(F)cc2)CC1
not listed: HOP-92 NSCLC | SR leukemia | UACC-257 melanoma | BT-549 breast
> 100 µM: all other assays above

CCCCOCn1c(=O)[nH]c(=O)c2ccccc21
46.7 µM: UO-31 renal
82.9 µM: SNB-75 CNS
55.5 µM: SNB-19 CNS
not listed: HCC-2998 colon | HOP-62 NSCLC | HS 578T breast | MALME-3M melanoma | NCI-H23 lung | NCI-H522 lung | PC-3 prostate | RPMI-8226 leukemia | SF-268 CNS | T-47D breast | BT-549 breast
> 100 µM: all other assays above

C[C@H]1C(=O)O[C@@H]1[C@H]1COC(C)(C)O1
not listed: 786-0 renal | COLO 205 colon | DU-145 prostate | HCT-116 colon | HS 578T breast | HT29 colon | IGROV1 ovarian | K-562 leukemia | LOX IMVI melanoma | MALME-3M melanoma | NCI-H522 lung | SK-MEL-5 melanoma | T-47D breast
> 100 µM: all other assays above

— PubChem BioAssay (NCI)
